Measurements reported in patent US5296596A, “Hexahydroazepine derivatives, a process for their preparation” (ELF SANOFI, priority 1990, dated 1994).

How the values were obtained:
dopaminergic receptor(s) = molecular target: T1, dopaminergic receptor(s) (Rattus norvegicus, UniProt P61169); experiment: biochemical; conditions: binding in vitro, ligand spiroperidol
T1 construct: from tissue; host or cells: rat brain, probably striatum (inferred from the cited methods)

sigma receptors [1] = molecular target: T2, sigma receptors (Rattus norvegicus, UniProt Q9R0C9); experiment: biochemical; conditions: binding in vitro, ligand (+)-3-PPP, rat cerebral membranes
T2 construct: in vitro on rat cerebral membranes; from tissue; host or cells: rat cerebral membranes
From the text: (§1) These tests have been carried out in vitro on rat cerebral membranes using as ligands either ^3 H-(+)-3 PPP according to Largent et al., J. Phamacol. […] Acad. Sci. USA, 1986, 83, 8784-8788 and in vivo in mice with the ligand ^3 H-3 PPP according to B. Kenneth Koe et al., European J. Pharmacol., 1989, 161, 263-266.

sigma receptors [2] = experiment: In vivo displacement of 3H-(+)-3-PPP at the cerebral level in mice
From the text: as §1

sigma receptors [3] = experiment: Binding in vitro on rat cerebral membranes, ligand 3H-DTG
From the text: as §1

TCP = experiment: Binding in vitro, TCP (thienylcyclohexylpiperidine); conditions: ligand TCP
sigma receptors [4] = experiment: Sigma receptor activity/selectivity (test not specified); assay type: binding; conditions: from Table I, versus haloperidol
[5] = test system: hyperactivity induced by d-amphetamine; experiment: Antagonism of hyperactivity induced in mice by d-amphetamine; assay type: in vivo; conditions: predictive test for antipsychotic activity

T1 sequence (P61169 whole entry): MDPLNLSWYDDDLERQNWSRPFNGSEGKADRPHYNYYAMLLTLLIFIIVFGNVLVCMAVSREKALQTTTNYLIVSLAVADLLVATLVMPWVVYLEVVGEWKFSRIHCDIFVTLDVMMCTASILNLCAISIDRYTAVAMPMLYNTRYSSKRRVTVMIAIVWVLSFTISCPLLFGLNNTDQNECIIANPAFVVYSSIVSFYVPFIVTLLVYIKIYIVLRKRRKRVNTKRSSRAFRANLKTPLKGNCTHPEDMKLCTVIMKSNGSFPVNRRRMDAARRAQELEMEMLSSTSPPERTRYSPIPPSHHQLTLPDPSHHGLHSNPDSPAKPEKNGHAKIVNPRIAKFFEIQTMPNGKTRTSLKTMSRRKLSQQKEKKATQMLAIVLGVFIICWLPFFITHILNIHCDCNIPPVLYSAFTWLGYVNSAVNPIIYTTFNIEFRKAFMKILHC
T2 sequence (Q9R0C9 whole entry): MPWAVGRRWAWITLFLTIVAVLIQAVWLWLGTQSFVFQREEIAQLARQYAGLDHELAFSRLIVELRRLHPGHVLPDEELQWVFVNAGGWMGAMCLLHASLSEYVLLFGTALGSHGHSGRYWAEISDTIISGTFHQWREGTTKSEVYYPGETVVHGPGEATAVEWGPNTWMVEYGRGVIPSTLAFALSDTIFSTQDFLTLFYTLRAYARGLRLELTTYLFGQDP

## Cl.Clc1cc(/C=C\CN2CCCCCC2)ccc1C1CCCCC1 [Example 2, cis-3-(Hexahydroazepin-1-yl)-1-(3-chloro-4-cyclohexylphenyl)-1-propene hydrochloride]
Dopaminergic receptor(s)
  IC50: 10000 nM
Sigma receptors [1]
  IC50: 8 nM
Sigma receptors [2]
  displacement of the ligand (+)-3PPP, at the cerebral level: active
Sigma receptors [3]
  IC50: 10 nM
TCP
  IC50: > 10000 nM
Sigma receptors [4]
  sigma impact compared with haloperidol: superior and/or more selective sigma impact than that of haloperidol
[5]
  hyperactivity induced by d-amphetamine: active
